Measurements as given in patent US20210379210A1, “RADIOLIGANDS FOR IMAGING THE LPA1 RECEPTOR” (BRISTOL-MYERS SQUIBB COMPANY, priority 2018, published 2021).
Values joined by “and” are separate entries in the source; they are usually repeats but may differ in a detail not shown here. Identical values can stand only once. Like-named read-outs stand apart in the source and are kept apart here.

Legend:
[1] = molecular target: LPA1 (Rattus norvegicus, UniProt P61794); assay: In-vivo PET imaging, lung uptake in wild type and bleomycin treated rats; conditions: for Lung uptake (% ID/g) @ 60-90 min: baseline PET scan, listed as [^18F]-(1S,3S)-3-(6-(5-((((4-(fluoro)butyl)(methyl)carbamoyl)oxy)methyl)-1-meth))
LPA1, sequence (P61794 whole entry): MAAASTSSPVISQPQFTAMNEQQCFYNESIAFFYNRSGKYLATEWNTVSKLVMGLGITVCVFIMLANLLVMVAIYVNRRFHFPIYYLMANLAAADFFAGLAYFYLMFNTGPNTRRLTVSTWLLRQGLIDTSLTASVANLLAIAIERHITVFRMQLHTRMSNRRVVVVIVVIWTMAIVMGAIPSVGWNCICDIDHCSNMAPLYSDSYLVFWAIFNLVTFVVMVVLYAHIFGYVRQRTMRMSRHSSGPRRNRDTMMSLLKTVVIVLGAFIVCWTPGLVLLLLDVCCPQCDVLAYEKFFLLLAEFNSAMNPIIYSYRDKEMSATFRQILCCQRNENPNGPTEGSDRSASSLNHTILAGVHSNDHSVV
Procedure: (§1) [^18F]-(1S,3S)-3-(((6-(5-((((4-(fluoro)butyl)(methyl)carbamoyl)oxy)methyl)-1-methyl-1H-1,2,3-triazol-4-yl)-2-methylpyridin-3-yl)oxy)cyclohexane-1-carboxylic acid was tested to confirm its properties, specificity and targeting of the LPA1 receptor in aged-matched wild type (Sprague Dawley rat, Charles River Laboratory, PA) and bleomycin-induced pulmonary fibrosis rat models. The bleomycin-induced pulmonary fibrosis rat model was generated in anesthetized rats that were administered bleomycin (2 μL/g) via oropharyngeal instillation. For oropharyngeal instillation, anesthetized rats (isoflurane, 4% in 100% 02) were placed on a slanted board/tilting workstation and bleomycin was dripped onto the vocal cords, facilitating aspiration. Rats were then returned to their cages until they fully recovered from anesthesia and were monitored daily for the duration of the experiment. In this experiment, the [^18F]-labeled LPA1 antagonist, produced as described in the above Examples, was tested for its ability to discriminate between normal lung in wild type rats and increased lung LPA1 expression in the bleomycin rat disease model. The bleomycin treated rats were used at 14 and 15 days post bleomycin treatment. PET images were acquired at 14 days (baseline) and 15 days (blocking with a 10 mg/kg oral dose of an LPA1 antagonist administered 30 minutes before PET scan). Two groups of rats were used in the PET imaging study—aged matched wild type rats (Group 1, n=4) and bleomycin treated rats (Group 2, n=4). All animals received a baseline PET imaging scan and a repeat PET imaging scan following a single 10 mg/kg oral dose of an LPA1 antagonist. For PET image acquisition, rats were placed in an anesthetic induction chamber and 3% isoflurane inhalant anesthesia was delivered in 100% O2 at a rate of 1-1.5 L/min. Once sedated, the rats were removed from the induction chamber and placed into a plexiglass 2-chamber holder (custom-made by BMS-Applied Biotechnology group) within the gantry of the PET system (microPET® F220™, Siemens Preclinical Solutions, Knoxville, Tenn.) where they remained for the duration of the study. Anesthesia was maintained with 1-1.5% isoflurane inhalant anesthesia delivered in 100% 02 at a rate of 2 L/min via the nose-cone. Animals were kept warm using an external standalone temperature regulating unit (M2M Imaging Corp) to prevent hypothermia during imaging. Rat respiration was continuously monitored during imaging procedures and isoflurane was adjusted dependent on depth of anesthesia. A 10-minute transmission image was first acquired using a ^57Co point source for the purpose of attenuation correction of the final PET images and confirmation of lung localization for region of interest (ROI) analysis. The scanning region was located beginning at the neck area and extending toward the hind limbs of each animal in order to place the lungs within the 7.6 cm microPET system axial field of view (FOV). Upon completion of the transmission scan, each rat received administration of between 19.5-29.7 MBq (542-803 μCi) of [^18F]-(1S,3S)-3-(((6-(5-((((4-(fluoro)butyl)(methyl) carbamoyl)oxy)methyl)-1-methyl-1H-1,2,3-triazol-4-yl)-2-methylpyridin-3-yl)oxy)cyclohexane-1-carboxylic acid tracer via tail vein catheter followed by a 2 hour dynamic PET emission scan. For blocking studies, the same protocol was flowed 30 minutes after a 10 mg/kg oral dose of an LPA1 antagonist. Images were reconstructed using a maximum a posteriori (MAP) algorithm with attenuation correction using the collected transmission images and corrected for radioisotope decay. The PET images were then co-registered with corresponding transmission images using anatomical landmarks (air in lung) and boundaries of the animal holder. Images were analyzed by Inveon Research Workstation (Siemens Medical Solutions USA Inc., PA). Analysis for each rat was done with regions of interest (ROIs) drawn onto each whole lung and a section of the liver using the co-registered transmission images. […]

[2] = as above; set-up: species or system rat; conditions: Sprague Dawley, rat, lung, intravenous
Procedure: as §1

[3] = Free fraction (free of protein binding) of the PET radioligand; format: in vitro ADME; conditions: read-out: free fractions, free of protein binding

increase in the lung radioligand signal in disease induced model vs wild type animals ([1]; bleomycin treated vs wild type rats, baseline, p<0.05): 46%
tissue uptake ([2]; bleomycin treated rats (Group 2, n=4), baseline, 60-90 minutes post injection, read-out: mean and standard error of radiotracer uptake in lung tissue): 0.116 %ID/g
tissue uptake ([2]; individual bleomycin treated rats (Group 2), baseline PET scan, 14 days post bleomycin, read-out: Lung uptake (% ID/g) @ 60-90 min): 0.116 %ID/g
tissue uptake ([2]; individual wild type rats (Group 1), baseline PET scan, read-out: Lung uptake (% ID/g) @ 60-90 min): 0.085 %ID/g
tissue uptake ([2]; wild type rats (Group 1, n=4), baseline, 60-90 minutes post injection, read-out: mean and standard error of radiotracer uptake in lung tissue): 0.08 %ID/g
fraction unbound [3]: 0.05 to 0.11
Structure (SMILES): Cc1nc(-c2nnn(C)c2COC(=O)N(C)CCCC[18F])ccc1O[C@H]1CCC[C@H](C(=O)O)C1 [Example 16]
Lung uptake (% ID/g) @ 60-90 min ([1]; individual bleomycin treated rats (Group 2), 14 days post bleomycin): 0.142 % ID/g and 0.118 % ID/g and 0.088 % ID/g
Lung uptake (% ID/g) @ 60-90 min ([1]; individual wild type rats (Group 1)): 0.075 % ID/g and 0.063 % ID/g and 0.095 % ID/g
